Measurements as given in patent publication US20220105051A1, “COMPOUNDS FOR INCREASING MHC-I EXPRESSION AND MODULATING HISTONE DEACETYLASE ACTIVITY” (Cava Healthcare Inc., priority 2019, published 2022).
Entries after “also recorded” stand apart in the source; their conditions may differ.

Columns and labels:
[1] = test system: A9 metastatic tumour cells; experiment: In vivo tumour trial; design: species or system C57BL/6 mice; details: daily i.p. for 12 days; for anti-tumour effect compared among the treatments / tumour volume / tumour growth compared to vehicle control: A9 tumours; for anti-tumour effect compared among the treatments: 5.2 mg/kg; for tumour volume / tumour growth compared to vehicle control / body weight: P02-113 and P03-97-1 5.2 mg/kg, TSA 0.5 mg/kg
Protocol: (§1) The metastatic cell line, A9, was grown in the DMEM, as previously described without, the addition of antibiotics (penicillin and streptomycin, P/S). Once cells reached 75-80% confluence, they were trypsinized (0.05%, Gibco) and washed with HBSS (Hanks balanced salt solution). The cells were counted using the Bio-RAD TC20 automated cell counter and suspended to a concentration of […] in HBSS. Thirty-two synergistic female C57BL/6 mice, between the ages 6-8 weeks, were subcutaneously injected in the right flank with 50 μL containing 5×10^4 A9 metastatic tumour cells. Seven days following tumour inoculation i.p. treatment began daily for 12 days. Four treatment groups were studied, with eight animals per group. […] Body weights were measured three times a week and once tumours developed they were measured with calipers and tumour volume was calculated. Twelve days after starting treatment, mice were euthanized and tumours were collected and weighed. The tumours were then processed for flow cytometry analysis. Tumours were cut into small pieces and incubated RPMI (Gibco; with P/S 0.5%, Sodium pyruvate 1%, and L-glutamine 1%) and 3 mg/mL collagenase A (Roche) for one hour at 37° C. with shaking. Dissociated tumour cells were passed through a 100 μm filter and spun down at 15,000×RCF for 3 minutes. The pellet was washed once in FACs buffer (2% FBS in PBS) and spun down. The pellet was next suspended in red blood cell (RBC) lysis buffer and kept at room temperature for 5 minutes before being neutralized by the addition of 5 ml of PBS and spun down. If pellets were still found to contain RBCs this step was repeated. Once all RBCs were removed cells were suspended in FACs buffer to a concentration of 10^7 cells/mL. A total volume of 200 ul of cells from each tumour were added to a 96 well plate (Falcon) and incubated with Fc Blocker (Biolegend, 1:400) for twenty minutes at 4° C. The 96 well plate was spun down at 1,200 rmp for three minutes and supernatant was removed. The cells were then suspended in 150 ul of FACs buffer containing anti-CD8a (PE-Cy7, 1:200, eBioscience) and CD4 (APC, 1:200, Biolegend) antibodies and incubated at 4° Celsius for 20 minutes. The cells were washed twice and spun down using FACs buffer before being to flow cytometry tubes in a final volume of 200 ul of FACs buffer containing 7AAD (Biolegend 1:200). Flow cytometry was performed on LSRII (BDBiosciences) and analysis was done using FlowJo (Flow cytometry Analysis Software).
Treatment of tumour-bearing mice with identified compounds. 5×10^4 A9 cells suspended in HBSS were subcutaneously (s.c.) transplanted into the right flank of 32 eight-week-old female C57BI/6 mice, as previously described 75. […] Body weight and tumours (once established) were measured every 2-4 days (more often as tumour size increased). Tumours were measured using calipers and volume was calculated as following: tumour volume=length×width^2. The tumour growth rate was assessed using methods previously described^28.

CD4+ and CD8+ T cells = experiment: Analysis of tumour-infiltrating lymphocytes; format: in vivo, C57BL/6 mice; details: after 12 days of treatment, flow cytometry
Protocol: as §1
Analysis of tumour-infiltrating lymphocytes (TILs). Tumour-infiltrating T lymphocyte (either CD4^+ or CD8^+ T cells) infiltration was evaluated in tumours of mice following 2-week treatment with either compounds or controls. Tumours at the site of initial injection were removed from tumour-bearing mice. Following tumour dissociation in the presence of collagenase A (Roche) and erythrocyte lysis, the tumour cells were then washed and prepared as single-cell suspensions to detect TILs. Before staining with antibodies, the cells were incubated with Fc Blocker (Ebiosciences) for 20 minutes at 4° C. The tumour cells were then washed and stained with anti-CD4-APC (Biolegend), anti-CD8-PECy7 (eBiosciences) and 7-AAD (Biolegend) viability stain. Using flow cytometry, 7-AAD positive dead cells were gated out and the remaining population was assessed for CD4^+ and CD8^+ expression. Data were acquired using a BD™ LSR II flow cytometer (BD Biosciences) with FACSDiva™ software and analyzed with FlowJo software (Treestar).

HDAC11 = target: T1, HDAC11 (Homo sapiens, UniProt Q96DB2); experiment: Individualized HDAC assay, HDAC11 (HDAC-Glo); format: biochemical; details: purified enzyme, 5 to 0.02 μM
T1 construct: purchased BPS Biosciences
T1 sequence (Q96DB2 1-347): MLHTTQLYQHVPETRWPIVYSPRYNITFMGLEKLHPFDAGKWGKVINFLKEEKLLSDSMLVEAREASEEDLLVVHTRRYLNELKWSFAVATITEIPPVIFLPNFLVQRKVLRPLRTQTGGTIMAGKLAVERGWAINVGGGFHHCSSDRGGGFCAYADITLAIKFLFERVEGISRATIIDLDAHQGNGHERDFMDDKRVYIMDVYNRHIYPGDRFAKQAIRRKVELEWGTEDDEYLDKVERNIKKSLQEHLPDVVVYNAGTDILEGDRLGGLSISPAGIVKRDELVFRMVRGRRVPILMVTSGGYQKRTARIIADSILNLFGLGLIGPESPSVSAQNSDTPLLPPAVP
Protocol: The activity of the curcuphenol analogues was assessed with purified HDAC enzymes from all classes I, II, and IV, as well as a select member of HDAC class III (SIRT1). HDACs 1-9 and SIRT1 were evaluated using HDAC Fluorogenic Assay Kits (BPS Biosciences). All assays were completed in black-sided clear-bottom 96 well plates (PerkinElmer), and all treatments were plated in triplicates. Treatment started at 5 μM and was two-fold diluted to a concentration 0.02 μM. The assays were measured using the Synergy HI hybrid reader (BioTek) and Gen5 software (BioTek), excitation was set to 360 nm and detection was measured at 450 nm with a gain of 100. Alternatively HDAC 10 and 11 (BPS Biosciences) were optimized for HDAC concentration using the HDAC-Glo™ I/II Assay and Screening System (Promega). Following optimization each HDAC was run following the Promega protocol in black-sided clear-bottomed 96 well plates in triplicates with same treatments listed above (PerkinElmer). Luminescence was read 30 minutes after HDAC-Glo™I/II reagent was added using the Synergy HI hybrid reader (BioTek) and Gen5 software (Bio-Tek). […] To calculate percent activity, the average of blank wells was subtracted from all treatment groups. The relative mean of activity of the HDAC being measured was determined and all wells that received treatment were divided this average, to give a percentage of activity.
To evaluate the effect of the compounds on specific HDACs, their activity was assessed with purified HDAC enzymes from all classes I, II, and IV, as well as a select member of HDAC class III (SIRT1). HDACs 1-9 and SIRT1 were evaluated using HDAC Fluorogenic Assay Kits (BPS Biosciences) following the manufacturer's recommendations. Compound treatment started at 5 μM and was two-fold diluted to a concentration 0.02 μM. […] The assays were measured using the Synergy HI hybrid reader (BioTek) and Gen5 software (Bio-Tek). […] To calculate the fold change in HDAC activity, the values from each treated well were divided by the relative mean of activity of the specific HDAC being measured.

Compound	anti-tumour effect compared among the treatments [1]	tumour volume / tumour growth compared to vehicle control [1]	tumour volume / tumour growth compared to vehicle control ([1]; listed as PC-02-113)	body weight [1]	CD4+ T cell infiltration of tumours (CD4+ and CD8+ T cells)	CD8+ T cell (CTL) infiltration of tumours (CD4+ and CD8+ T cells)	HDAC11 activity (HDAC11)	HDAC11 activity (HDAC11; listed as PO-3-97-1)
CC(C)=CCCCc1ccc(C)cc1O [P02-113]	not found to be as significant as P03-97-1 or TSA; also recorded: slightly larger	reduced; also recorded: statistically significant reduction of tumour volume	suppresses growth of tumors	remained stable; also recorded: no significant changes	no significant infiltration or difference; also recorded: did not appear to increase	no significant change in CTL infiltration	unaffected; also recorded: no effect was observed; also recorded: no change in activity	–
COc1ccc(C(C)CCC=C(C)C)c(O)c1 (centres unmarked) [P03-97-1]	significant anti-tumour effect; also recorded: greater reduction in tumour burden	reduced; also recorded: statistically significant reduction of tumour volume; also recorded: suppresses growth of tumors	–	remained stable; also recorded: no significant changes	no significant infiltration or difference; also recorded: did not appear to increase	greatest CD8+ infiltration; also recorded: increase in the CTL infiltration	unaffected; also recorded: no change in activity	no effect was observed
